Laboratory results from ChEMBL document CHEMBL1201862, “PubChem BioAssay data set” (2004).
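All cell lines were grown in 96-well plates and treated with compound for 48 hours. GI50 marks 50% less growth.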 Active and inactive are the calls of the source. Rule as the data show it: active = GI50 up to about 1.1 µM and inactive = higher.

What was measured:
Assay in all cases: inhibition of tumour cell growth, NCI panel, 48 h
[1] = system: A549
[2] = system: BT-549
[3] = system: CAKI-1
[4] = system: COLO 205
[5] = system: HL-60
[6] = system: Hs-578T
[7] = system: LOX IMVI
[8] = system: NCI-H23
[9] = system: NCI-H460
[10] = system: NCI-H522
[11] = system: OVCAR-3
[12] = system: OVCAR-4
[13] = system: RPMI-8226
[14] = system: SF-295
[15] = system: SK-MEL-5
[16] = system: SNB-19
[17] = system: TK-10
[18] = system: UACC-62
[19] = system: SK-OV-3
[20] = system: SNB-75

Compound | GI50 [1] | GI50 [2] | GI50 [3] | GI50 [4] | GI50 [5] | GI50 [6] | GI50 [7] | GI50 [8] | GI50 [9] | GI50 [10] | GI50 [11] | GI50 [12] | GI50 [13] | GI50 [14] | GI50 [15] | GI50 [16] | GI50 [17] | GI50 [18] | GI50 [19] | GI50 [20]
COc1ccc(-c2c(C#N)c(N)nc(S)c2C#N)cc1 | 48.4 µM (inactive) | 24.9 µM (inactive) | 42.4 µM (inactive) | 30.1 µM (inactive) | 23.1 µM (inactive) | 19.1 µM (inactive) | 43.5 µM (inactive) | 38.3 µM (inactive) | 31 µM (inactive) | 20.5 µM (inactive) | 64.7 µM (inactive) | > 100 µM (inactive) | 21.5 µM (inactive) | 27.6 µM (inactive) | 26.2 µM (inactive) | 57.7 µM (inactive) | 71.3 µM (inactive) | 41.5 µM (inactive) | – | –
CC(=O)NC(Cc1c[nH]c2ccccc12)C(=O)O (configuration not stated) | > 100 µM (inactive) | > 100 µM (inactive) | > 100 µM (inactive) | > 100 µM (inactive) | > 100 µM (inactive) | > 100 µM (inactive) | > 100 µM (inactive) | > 100 µM (inactive) | > 100 µM (inactive) | > 100 µM (inactive) | > 100 µM (inactive) | > 100 µM (inactive) | > 100 µM (inactive) | > 100 µM (inactive) | > 100 µM (inactive) | > 100 µM (inactive) | > 100 µM (inactive) | > 100 µM (inactive) | > 100 µM (inactive) | –
O=CC1C(Cl)=Nc2nc3ccccc3n2C1c1ccccc1 (configuration not stated) | 23.8 µM (inactive) | 15.2 µM (inactive) | 21.4 µM (inactive) | 19.2 µM (inactive) | 20 µM (inactive) | 0.741 µM (active) | 15.5 µM (inactive) | 23.4 µM (inactive) | 55.2 µM (inactive) | 14.3 µM (inactive) | 23.2 µM (inactive) | 15.2 µM (inactive) | 14 µM (inactive) | > 100 µM (inactive) | 19.6 µM (inactive) | 25.5 µM (inactive) | 26.3 µM (inactive) | 24.7 µM (inactive) | – | 17 µM (inactive)
Cc1ccc(S(=O)(=O)N/N=C2/CC3CCC4CC2CC34)cc1 (configuration not stated) | > 100 µM (inactive) | > 100 µM (inactive) | > 100 µM (inactive) | 55 µM (inactive) | > 100 µM (inactive) | 88.3 µM (inactive) | > 100 µM (inactive) | > 100 µM (inactive) | > 100 µM (inactive) | > 100 µM (inactive) | > 100 µM (inactive) | – | > 100 µM (inactive) | > 100 µM (inactive) | 84.7 µM (inactive) | > 100 µM (inactive) | > 100 µM (inactive) | > 100 µM (inactive) | > 100 µM (inactive) | > 100 µM (inactive)
O=C(CN1CCOCC1)c1ccc2c(c1)oc(=O)n2CCN1CCCC1 | – | > 100 µM (inactive) | > 100 µM (inactive) | > 100 µM (inactive) | > 100 µM (inactive) | > 100 µM (inactive) | > 100 µM (inactive) | > 100 µM (inactive) | > 100 µM (inactive) | – | > 100 µM (inactive) | – | > 100 µM (inactive) | > 100 µM (inactive) | > 100 µM (inactive) | > 100 µM (inactive) | > 100 µM (inactive) | > 100 µM (inactive) | > 100 µM (inactive) | > 100 µM (inactive)
O=Cc1cc(C(=O)OCc2ccccc2)n(S(=O)(=O)c2ccccc2)c1 | 25.8 µM (inactive) | 16 µM (inactive) | 29.4 µM (inactive) | 26.1 µM (inactive) | 5.75 µM (inactive) | 15.8 µM (inactive) | 10.3 µM (inactive) | 20.6 µM (inactive) | 23.7 µM (inactive) | 40.4 µM (inactive) | 18.7 µM (inactive) | 43.5 µM (inactive) | – | 14.4 µM (inactive) | 4.84 µM (inactive) | 29.2 µM (inactive) | 24 µM (inactive) | 11 µM (inactive) | 21.6 µM (inactive) | 23.1 µM (inactive)
CN(C)c1ccc([S+]([O-])Nc2ccccc2)cc1 (configuration not stated) | 39 µM (inactive) | 0.52 µM (active) | – | 24.6 µM (inactive) | 28.1 µM (inactive) | 45 µM (inactive) | 38.9 µM (inactive) | 45.7 µM (inactive) | 27.5 µM (inactive) | 13.2 µM (inactive) | > 100 µM (inactive) | 45 µM (inactive) | 27.5 µM (inactive) | 48.8 µM (inactive) | 11.9 µM (inactive) | 60.1 µM (inactive) | > 100 µM (inactive) | 22.5 µM (inactive) | – | –
c1ccc(-c2sc(-c3cccs3)cc2Cc2cccs2)cc1 | > 10 µM (inactive) | > 10 µM (inactive) | > 10 µM (inactive) | > 10 µM (inactive) | > 10 µM (inactive) | > 10 µM (inactive) | > 10 µM (inactive) | > 10 µM (inactive) | > 10 µM (inactive) | > 10 µM (inactive) | – | > 10 µM (inactive) | > 10 µM (inactive) | > 10 µM (inactive) | > 10 µM (inactive) | > 10 µM (inactive) | > 10 µM (inactive) | > 10 µM (inactive) | > 10 µM (inactive) | > 10 µM (inactive)
COc1ccc(P2(=S)OCCOP(=S)(c3ccc(OC)cc3)S2)cc1 (configuration not stated) | 3.01 µM (inactive) | 13.9 µM (inactive) | 2.31 µM (inactive) | 3.56 µM (inactive) | 2.64 µM (inactive) | 5.48 µM (inactive) | 2.84 µM (inactive) | 4.7 µM (inactive) | 2.65 µM (inactive) | 2.2 µM (inactive) | 2.52 µM (inactive) | 12.3 µM (inactive) | – | 2.53 µM (inactive) | 3.02 µM (inactive) | 3.71 µM (inactive) | 16.3 µM (inactive) | 4.16 µM (inactive) | – | > 52.7 µM (inactive)
COC1(C2c3ccccc3CCN2C(=O)OC(C)(C)C)C(=O)C(c2ccccc2)=C1N(C)C (configuration not stated) | 27.5 µM (inactive) | 27.9 µM (inactive) | 45.7 µM (inactive) | 18.5 µM (inactive) | 19.7 µM (inactive) | 32.7 µM (inactive) | – | 23.3 µM (inactive) | 29.8 µM (inactive) | 21.2 µM (inactive) | 27.7 µM (inactive) | 46.9 µM (inactive) | – | 30.8 µM (inactive) | 20.7 µM (inactive) | 27.5 µM (inactive) | 48.2 µM (inactive) | 30.5 µM (inactive) | 37.9 µM (inactive) | 43.6 µM (inactive)
Cn1c(=O)c2c(nc3n2CCC(=O)N3CCCCl)n(C)c1=O | > 100 µM (inactive) | > 100 µM (inactive) | – | > 100 µM (inactive) | > 100 µM (inactive) | > 100 µM (inactive) | > 100 µM (inactive) | > 100 µM (inactive) | > 100 µM (inactive) | – | > 100 µM (inactive) | > 100 µM (inactive) | > 100 µM (inactive) | > 100 µM (inactive) | > 100 µM (inactive) | > 100 µM (inactive) | > 100 µM (inactive) | > 100 µM (inactive) | > 100 µM (inactive) | > 100 µM (inactive)
Cc1cc2nc(N3C(=O)/C(=C/c4ccc(N(C)C)cc4)N=C3c3ccccc3)sc2cc1C | 33.2 µM (inactive) | 44.5 µM (inactive) | 43.9 µM (inactive) | 18 µM (inactive) | 16.9 µM (inactive) | 30.3 µM (inactive) | 30.1 µM (inactive) | – | 23 µM (inactive) | – | 41.5 µM (inactive) | 29.4 µM (inactive) | 23.8 µM (inactive) | 33.6 µM (inactive) | 15.2 µM (inactive) | 54.6 µM (inactive) | 58.9 µM (inactive) | 20.3 µM (inactive) | > 100 µM (inactive) | 22.9 µM (inactive)
CC(=O)OCC(OC(C)=O)C1C[C@H]2O[C@@H]3[C@H](C[C@H]2O1)O[C@@]1(C[C@@H]3C)C[C@H](C)[C@@H]2O[C@]3(C[C@@H]2O1)C[C@H]1O[C@H]2[C@H](C)[C@H]4OC(=O)C[C@H]5CC[C@@H]6OC7[C@H]8O[C@]9(CC[C@H]%10CC(=O)[C@H](CC[C@H]%11C[C@@H](C)C(=O)C(C[C@@H]4O[C@H]2C[C@H]1O3)O%11)O%10)CC8O[C@@H]7[C@@H](O9)[C@H]6O5 (some centres not stated) | 0.00501 µM (active) | 0.000553 µM (active) | 0.00515 µM (active) | 0.00281 µM (active) | 0.000489 µM (active) | 0.00179 µM (active) | 0.00486 µM (active) | 0.00267 µM (active) | 0.00315 µM (active) | 0.00051 µM (active) | 0.00319 µM (active) | – | 0.00229 µM (active) | 0.00242 µM (active) | 0.000458 µM (active) | 0.0101 µM (active) | – | 0.00248 µM (active) | 0.00728 µM (active) | 0.00265 µM (active)
COc1cc2c3c(n(C)c(=O)c2cc1OC)-c1cc2c(cc1/C3=C\CCCCl)OCO2 | > 100 µM (inactive) | 20.5 µM (inactive) | 25.9 µM (inactive) | 32.9 µM (inactive) | 55.1 µM (inactive) | 47.4 µM (inactive) | 39 µM (inactive) | 19.9 µM (inactive) | 43.8 µM (inactive) | 20.8 µM (inactive) | – | 49.7 µM (inactive) | – | 19.9 µM (inactive) | 25.6 µM (inactive) | 44.9 µM (inactive) | 20.1 µM (inactive) | – | 23 µM (inactive) | 11.9 µM (inactive)
CO[C@H]1C[C@](C)(O)Cc2cc3c(c(O)c21)C(=O)c1c(O)cc2c(c1C3=O)O[C@@H]1O[C@@]2(C)[C@H](O)[C@@H](N(C)C)[C@@H]1O | 0.0908 µM (active) | 2.05 µM (inactive) | 0.151 µM (active) | 1.96 µM (inactive) | 0.115 µM (active) | 5.25 µM (inactive) | – | 0.804 µM (active) | 0.0295 µM (active) | 1.04 µM (active) | 2.38 µM (inactive) | 4.11 µM (inactive) | – | 0.284 µM (active) | 1.16 µM (inactive) | 0.434 µM (active) | 6.98 µM (inactive) | 0.738 µM (active) | 0.641 µM (active) | 0.653 µM (active)
